Among the data in PubChem BioAssay AID463149 (The Scripps Research Institute Molecular Screening Center, 2010) are inhibition values, retold here.

Common to all, as to assay: PME-1 inhibition and serine hydrolase selectivity by ABPP – cell lysate, gel-based competitive ABPP, fluorescence, powder samples, selectivity assay, late-stage follow-up (AID 463149);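 note: 0% = DMSO-treated band intensity and 100% = blank gel background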
Assay [1] concerns Anti-Target PREP. The note with it: HeLa soluble proteome, FP-Rh fluorescence, measured here: Anti-Target PREP, stronger effect = higher value.
The target of assay [2] is Fatty acid synthase (Homo sapiens) (UniProt P49327). Particulars: HeLa soluble proteome, FP-Rh fluorescence, measured here: Anti-Target FAS, stronger effect = higher value.
In assay [3] the target is Acylamino-acid-releasing enzyme (Homo sapiens) (UniProt P13798). Particulars: HeLa soluble proteome, FP-Rh fluorescence, measured here: Anti-Target APEH, stronger effect = higher value.
The test system of assay [4] is Anti-Target ABHD10. The note with it: HeLa soluble proteome, FP-Rh fluorescence, stronger effect = higher value.
The subject of assay [5] is Anti-Target CES. The note with it: HeLa soluble proteome, FP-Rh fluorescence, measured here: Anti-Target CES, stronger effect = higher value.
The target in assay [6] is Protein phosphatase methylesterase 1 (Homo sapiens) (UniProt Q9Y570). The note with it: HeLa soluble proteome, FP-Rh fluorescence, stronger effect = higher value.
[7] abbreviates: measured here: Anti-Target ABHD10, at 1 µM.
The mark [8] stands for this setting: measured here: Anti-Target ABHD10, at 20 µM.

Chain of Fatty acid synthase (Homo sapiens) (P49327 whole entry, looked up): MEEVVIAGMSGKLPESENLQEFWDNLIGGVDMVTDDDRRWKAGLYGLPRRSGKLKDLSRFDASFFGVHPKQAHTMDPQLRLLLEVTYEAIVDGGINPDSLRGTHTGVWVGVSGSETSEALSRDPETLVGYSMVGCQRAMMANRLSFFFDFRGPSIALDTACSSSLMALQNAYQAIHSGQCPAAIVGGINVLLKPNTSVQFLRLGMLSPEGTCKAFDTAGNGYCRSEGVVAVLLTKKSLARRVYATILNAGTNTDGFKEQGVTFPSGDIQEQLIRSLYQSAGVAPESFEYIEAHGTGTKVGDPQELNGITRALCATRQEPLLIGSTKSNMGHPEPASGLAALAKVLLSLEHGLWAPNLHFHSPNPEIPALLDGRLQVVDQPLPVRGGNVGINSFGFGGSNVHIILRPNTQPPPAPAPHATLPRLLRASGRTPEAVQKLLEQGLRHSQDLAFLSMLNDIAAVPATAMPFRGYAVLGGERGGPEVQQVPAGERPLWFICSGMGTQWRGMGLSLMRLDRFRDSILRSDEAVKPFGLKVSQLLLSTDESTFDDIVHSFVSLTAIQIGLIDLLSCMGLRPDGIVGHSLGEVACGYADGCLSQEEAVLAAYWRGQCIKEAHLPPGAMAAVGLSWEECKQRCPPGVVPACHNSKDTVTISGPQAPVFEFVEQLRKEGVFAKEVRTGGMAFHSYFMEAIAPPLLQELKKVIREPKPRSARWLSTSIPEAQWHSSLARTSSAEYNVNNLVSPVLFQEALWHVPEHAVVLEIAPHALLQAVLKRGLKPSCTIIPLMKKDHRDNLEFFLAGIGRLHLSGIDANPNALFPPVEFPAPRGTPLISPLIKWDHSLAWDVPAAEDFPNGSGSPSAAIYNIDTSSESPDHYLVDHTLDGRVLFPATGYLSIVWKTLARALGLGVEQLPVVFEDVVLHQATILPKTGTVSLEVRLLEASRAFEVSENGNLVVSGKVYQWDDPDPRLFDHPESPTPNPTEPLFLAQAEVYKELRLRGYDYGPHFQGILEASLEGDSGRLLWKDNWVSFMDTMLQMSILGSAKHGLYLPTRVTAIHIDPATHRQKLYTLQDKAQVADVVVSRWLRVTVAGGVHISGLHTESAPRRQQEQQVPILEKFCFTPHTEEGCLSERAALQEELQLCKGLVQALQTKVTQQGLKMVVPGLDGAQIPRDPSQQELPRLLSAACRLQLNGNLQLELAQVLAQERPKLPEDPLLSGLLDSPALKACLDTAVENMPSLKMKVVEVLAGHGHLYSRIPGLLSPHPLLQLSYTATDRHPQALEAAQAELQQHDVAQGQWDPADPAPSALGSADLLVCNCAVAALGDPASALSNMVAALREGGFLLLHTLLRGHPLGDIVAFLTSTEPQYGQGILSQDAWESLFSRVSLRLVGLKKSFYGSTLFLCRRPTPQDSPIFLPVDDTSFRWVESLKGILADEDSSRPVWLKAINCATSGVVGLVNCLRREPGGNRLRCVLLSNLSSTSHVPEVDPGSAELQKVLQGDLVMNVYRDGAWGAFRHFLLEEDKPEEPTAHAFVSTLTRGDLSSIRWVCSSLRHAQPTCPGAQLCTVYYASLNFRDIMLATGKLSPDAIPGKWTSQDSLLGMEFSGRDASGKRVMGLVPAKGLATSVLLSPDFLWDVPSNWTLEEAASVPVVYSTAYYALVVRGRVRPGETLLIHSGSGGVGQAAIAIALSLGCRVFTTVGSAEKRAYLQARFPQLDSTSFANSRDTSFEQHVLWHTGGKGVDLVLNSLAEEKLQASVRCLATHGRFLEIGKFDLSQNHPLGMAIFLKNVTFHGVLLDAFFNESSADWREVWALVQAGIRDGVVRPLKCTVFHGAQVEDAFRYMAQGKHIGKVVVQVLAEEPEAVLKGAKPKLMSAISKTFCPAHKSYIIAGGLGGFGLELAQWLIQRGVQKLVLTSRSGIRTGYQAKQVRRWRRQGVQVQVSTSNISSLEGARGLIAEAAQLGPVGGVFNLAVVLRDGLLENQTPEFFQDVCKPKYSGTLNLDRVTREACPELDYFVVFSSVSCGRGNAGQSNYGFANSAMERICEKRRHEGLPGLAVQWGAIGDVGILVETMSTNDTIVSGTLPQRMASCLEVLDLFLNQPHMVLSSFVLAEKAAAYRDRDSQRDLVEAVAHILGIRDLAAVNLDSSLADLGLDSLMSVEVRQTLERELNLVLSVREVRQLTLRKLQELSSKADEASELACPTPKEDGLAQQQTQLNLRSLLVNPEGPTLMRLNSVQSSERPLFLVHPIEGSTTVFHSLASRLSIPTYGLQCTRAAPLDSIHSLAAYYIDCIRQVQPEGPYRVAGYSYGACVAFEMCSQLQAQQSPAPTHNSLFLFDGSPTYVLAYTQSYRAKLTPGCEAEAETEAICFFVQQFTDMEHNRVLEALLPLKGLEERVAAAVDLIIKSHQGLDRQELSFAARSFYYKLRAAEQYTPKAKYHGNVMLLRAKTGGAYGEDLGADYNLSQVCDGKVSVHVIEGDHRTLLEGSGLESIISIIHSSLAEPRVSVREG
Chain of Acylamino-acid-releasing enzyme (Homo sapiens) (P13798 whole entry, looked up): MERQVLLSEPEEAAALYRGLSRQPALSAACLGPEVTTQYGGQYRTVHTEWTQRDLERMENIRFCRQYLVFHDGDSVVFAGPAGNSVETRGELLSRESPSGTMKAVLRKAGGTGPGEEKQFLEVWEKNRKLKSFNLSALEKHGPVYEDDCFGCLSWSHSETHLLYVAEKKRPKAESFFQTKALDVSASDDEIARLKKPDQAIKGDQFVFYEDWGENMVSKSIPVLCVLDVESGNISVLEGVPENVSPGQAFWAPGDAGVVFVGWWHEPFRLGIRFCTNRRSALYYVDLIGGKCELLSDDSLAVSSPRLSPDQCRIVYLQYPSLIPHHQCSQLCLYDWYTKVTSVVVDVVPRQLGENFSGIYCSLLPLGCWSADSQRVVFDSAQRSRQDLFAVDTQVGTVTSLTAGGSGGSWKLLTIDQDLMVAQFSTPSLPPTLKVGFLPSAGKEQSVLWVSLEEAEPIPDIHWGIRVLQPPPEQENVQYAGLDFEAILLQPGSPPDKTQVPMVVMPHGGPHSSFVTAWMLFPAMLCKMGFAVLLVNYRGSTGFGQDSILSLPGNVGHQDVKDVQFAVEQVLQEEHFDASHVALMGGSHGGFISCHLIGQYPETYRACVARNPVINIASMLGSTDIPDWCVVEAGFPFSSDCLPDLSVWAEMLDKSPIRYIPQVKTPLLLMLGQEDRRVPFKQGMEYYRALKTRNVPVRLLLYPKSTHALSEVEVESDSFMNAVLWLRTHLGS
Chain of Protein phosphatase methylesterase 1 (Homo sapiens) (Q9Y570 whole entry, looked up): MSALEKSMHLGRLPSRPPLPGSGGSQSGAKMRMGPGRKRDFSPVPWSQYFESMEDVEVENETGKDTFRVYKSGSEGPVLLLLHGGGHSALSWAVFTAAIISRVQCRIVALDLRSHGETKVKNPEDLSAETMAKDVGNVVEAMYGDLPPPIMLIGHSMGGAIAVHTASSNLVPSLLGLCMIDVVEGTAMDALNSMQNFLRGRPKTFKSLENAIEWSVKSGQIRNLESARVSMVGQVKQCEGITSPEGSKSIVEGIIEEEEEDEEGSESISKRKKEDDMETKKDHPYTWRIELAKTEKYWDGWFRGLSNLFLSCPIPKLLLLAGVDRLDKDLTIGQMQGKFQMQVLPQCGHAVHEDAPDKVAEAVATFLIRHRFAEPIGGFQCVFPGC

On to `COC(=O)N1C(=O)[C@@](c2ccc(OC)cc2)(C(C)C)N1C(=O)OC`, for which the inhibition in assay [1] (at 1 µM), in assay [1] (at 20 µM), in assay [2] (at 1 µM), in assay [2] (at 20 µM), in assay [3] (at 1 µM) and in assay [3] (at 20 µM) was 0% throughout. Moreover, the inhibition is 0% in assay [4] (setting [7]); 0% in assay [4] (setting [8]); 0% in assay [5] (at 1 µM); above 50% in assay [5] (at 20 µM); 0% in assay [6] (PME-1, inhibition, at 1 µM); 50% in assay [6] (PME-1, inhibition, at 20 µM).
Turning to `CC[C@@]1(c2ccccc2)C(=O)N(C(=O)OC)N1C(=O)OC`, the inhibition in assay [1] (at 1 µM) is 0%; in assay [1] (at 20 µM), above 50%; in assay [2] (at 1 µM), 0%; in assay [2] (at 20 µM), 0%; in assay [3] (at 1 µM), 0%; in assay [3] (at 20 µM), 0%. Moreover, the inhibition in assay [4] (setting [7]) is 0%; in assay [4] (setting [8]), 50%; in assay [5] (at 1 µM) it was 0%; in assay [5] (at 20 µM), above 50%; in assay [6] (PME-1, inhibition, at 1 µM), 0%; in assay [6] (PME-1, inhibition, at 20 µM), 100%.
In the case of `COC(=O)N1C(=O)[C@](c2ccccc2)(C2CCCCC2)N1C(=O)OC`, the inhibition in assay [1] (at 1 µM) was 0%; in assay [1] (at 20 µM), 0%; in assay [2] (at 1 µM) it was 0%; in assay [2] (at 20 µM) it was above 50%; in assay [3] (at 1 µM) it was 0%; in assay [3] (at 20 µM), 0%. Moreover, the inhibition in assay [4] (setting [7]) is 0%; in assay [4] (setting [8]), 0%; in assay [5] (at 1 µM), 0%; in assay [5] (at 20 µM) it was 0%; in assay [6] (PME-1, at 0.1 µM) it was 90%; in assay [6] (PME-1, inhibition, at 1 µM), 100%. The inhibition in assay [6] (PME-1, inhibition, at 20 µM) was determined as 100%.
`CCOC(=O)N1C(=O)[C@@](CC)(c2ccccc2)N1C(=O)OCC`: the inhibition is 0% in assay [1] (at 1 µM); above 50% in assay [1] (at 20 µM); 0% in assay [2] (at 1 µM); 0% in assay [2] (at 20 µM); 0% in assay [3] (at 1 µM); 0% in assay [3] (at 20 µM). Moreover, the inhibition is 0% in assay [4] (setting [7]); 50% in assay [4] (setting [8]); 0% in assay [5] (at 1 µM); above 50% in assay [5] (at 20 µM); 0% in assay [6] (PME-1, inhibition, at 1 µM); 0% in assay [6] (PME-1, inhibition, at 20 µM).
Take `COC(=O)N1C(=O)[C@](c2ccccc2)(C(C)C)N1C(=O)OC`: the inhibition in assay [1] (at 1 µM), in assay [1] (at 20 µM), in assay [2] (at 1 µM), in assay [2] (at 20 µM), in assay [3] (at 1 µM) and in assay [3] (at 20 µM) was 0% in each case. Further, the inhibition worked out at 0% in assay [4] (setting [7]); 0% in assay [4] (setting [8]); 0% in assay [5] (at 1 µM); 0% in assay [5] (at 20 µM); 100% in assay [6] (PME-1, inhibition, at 1 µM); 100% in assay [6] (PME-1, inhibition, at 20 µM).
`COC(=O)N1C(=O)[C@@](c2ccccc2)(C2CCCCC2)N1C(=O)OC`: the inhibition in assay [1] (at 1 µM), in assay [1] (at 20 µM), in assay [2] (at 1 µM), in assay [2] (at 20 µM), in assay [3] (at 1 µM) and in assay [3] (at 20 µM) was 0% each time. The inhibition in assay [4] (setting [7]) was determined as 0%; in assay [4] (setting [8]), 0%; in assay [5] (at 1 µM), 0%; in assay [5] (at 20 µM) it was 0%; in assay [6] (PME-1, inhibition, at 1 µM) it was 100%; in assay [6] (PME-1, inhibition, at 20 µM) it was 100%.
Regarding `COC(=O)N1C(=O)[C@](CC(C)C)(c2ccccc2)N1C(=O)OC`, the inhibition is 0% in assay [1] (at 1 µM); 0% in assay [1] (at 20 µM); above 50% in assay [2] (at 1 µM); above 50% in assay [2] (at 20 µM); 0% in assay [3] (at 1 µM); above 50% in assay [3] (at 20 µM). The inhibition was 0% in assay [4] (setting [7]); 0% in assay [4] (setting [8]); above 50% in assay [5] (at 1 µM); above 50% in assay [5] (at 20 µM); 100% in assay [6] (PME-1, at 0.1 µM); 100% in assay [6] (PME-1, inhibition, at 1 µM). In assay [6] (PME-1, inhibition, at 20 µM), the inhibition was determined as 100%.
Regarding `COC(=O)N1C(=O)[C@](c2ccsc2)(C(C)C)N1C(=O)OC`, the inhibition in assay [1] (at 1 µM), in assay [1] (at 20 µM), in assay [2] (at 1 µM), in assay [2] (at 20 µM), in assay [3] (at 1 µM) and in assay [3] (at 20 µM) was 0% each time. The inhibition in assay [4] (setting [7]) amounted to 0%; in assay [4] (setting [8]) it was 0%; in assay [5] (at 1 µM), 0%; in assay [5] (at 20 µM), 0%; in assay [6] (PME-1, inhibition, at 1 µM), 50%; in assay [6] (PME-1, inhibition, at 20 µM), 100%.
On to `CC[C@]1(c2ccccc2C)C(=O)N(C(=O)OC)N1C(=O)OC`, for which the inhibition in assay [1] (at 1 µM), in assay [1] (at 20 µM), in assay [2] (at 1 µM), in assay [2] (at 20 µM), in assay [3] (at 1 µM) and in assay [3] (at 20 µM) was 0% in each case. Moreover, the inhibition is 0% in assay [4] (setting [7]); 0% in assay [4] (setting [8]); 0% in assay [5] (at 1 µM); above 50% in assay [5] (at 20 µM); 0% in assay [6] (PME-1, inhibition, at 1 µM); 100% in assay [6] (PME-1, inhibition, at 20 µM).
In the case of `CC[C@@]1(c2cccc(C)c2)C(=O)N(C(=O)OC)N1C(=O)OC`, the inhibition in assay [1] (at 1 µM) is 0%; in assay [1] (at 20 µM) it was above 50%; in assay [2] (at 1 µM) it was 0%; in assay [2] (at 20 µM), above 50%; in assay [3] (at 1 µM), 0%; in assay [3] (at 20 µM), 0%. For the same compound, the inhibition in assay [4] (setting [7]) is 0%; in assay [4] (setting [8]), 50%; in assay [5] (at 1 µM), above 50%; in assay [5] (at 20 µM), above 50%; in assay [6] (PME-1, inhibition, at 1 µM), 0%; in assay [6] (PME-1, inhibition, at 20 µM), 100%.
With `CCOC(=O)N1C(=O)[C@](c2ccc(Cl)cc2)(C(C)C)N1C(=O)OCC`, the inhibition in assay [1] (at 1 µM), in assay [1] (at 20 µM), in assay [2] (at 1 µM), in assay [2] (at 20 µM), in assay [3] (at 1 µM) and in assay [3] (at 20 µM) was 0% in each case. For the same compound, the inhibition was found to be 0% in assay [4] (setting [7]); 0% in assay [4] (setting [8]); 0% in assay [5] (at 1 µM); 0% in assay [5] (at 20 µM); 50% in assay [6] (PME-1, inhibition, at 1 µM); 100% in assay [6] (PME-1, inhibition, at 20 µM).
Regarding `COC(=O)N1C(=O)[C@@](Cc2ccccc2)(c2ccccc2)N1C(=O)OC`, the inhibition in assay [1] (at 1 µM), in assay [1] (at 20 µM), in assay [2] (at 1 µM), in assay [2] (at 20 µM), in assay [3] (at 1 µM) and in assay [3] (at 20 µM) was 0% throughout. Further, the inhibition was 0% in assay [4] (setting [7]); 50% in assay [4] (setting [8]); above 50% in assay [5] (at 1 µM); above 50% in assay [5] (at 20 µM); 0% in assay [6] (PME-1, inhibition, at 1 µM); 50% in assay [6] (PME-1, inhibition, at 20 µM).
For the compound `CCOC(=O)N1C(=O)[C@](CC)(c2ccccc2)N1C(=O)OCC`, the inhibition is 0% in assay [1] (at 1 µM); 0% in assay [1] (at 20 µM); 0% in assay [2] (at 1 µM); above 50% in assay [2] (at 20 µM); 0% in assay [3] (at 1 µM); 0% in assay [3] (at 20 µM). The inhibition in assay [4] (setting [7]) is 0%; in assay [4] (setting [8]) it was 0%; in assay [5] (at 1 µM) it was above 50%; in assay [5] (at 20 µM), above 50%; in assay [6] (PME-1, inhibition, at 1 µM) it was 0%; in assay [6] (PME-1, inhibition, at 20 µM), 100%.
